What all share (format): in vivo
The subject of assay [1] is morningglory (Ipomoea spp.). Description: Test A pre-/postemergence: morningglory. The settings on record: Ipomoea, 240 h; for pest or weed control at 125 g/ha: 125 g ai/ha; for pest or weed control at 500 g/ha: 500 g ai/ha. The essentials:
(§1)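 Seeds were sown in loam/sand blend and sprayed preemergence (directed soil spray) and, simultaneously, postemergence at 2–10 cm, one- to two-leaf stage, using compounds in non-phytotoxic solvent with surfactant. After ~10 days in greenhouse, injury was rated visually versus untreated controls, 0 (no effect) to 100 (complete control).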

Another assay concerns corn (Zea mays). As to the kind of experiment: Test A pre-/postemergence: corn. The settings on record: Zea mays, 240 h; for plant injury at 125 g/ha / plant injury at 500 g/ha: post-emergence, Postemergence, read-out: Corn plant response rating; for plant injury at 125 g/ha / Corn plant response rating (crop injury, 0 = no effect, 100 = complete kill) at 125 g/ha: 125 g ai/ha; for plant injury at 500 g/ha / Corn plant response rating (crop injury, 0 = no effect, 100 = complete kill) at 500 g/ha: 500 g ai/ha; for plant injury at 500 g/ha: visual rating on 0 to 100 scale (0 no effect, 100 complete control), approximately ten days; for Corn plant response rating (crop injury, 0 = no effect, 100 = complete kill) at 125 g/ha / Corn plant response rating (crop injury, 0 = no effect, 100 = complete kill) at 500 g/ha: pre-emergence, Preemergence. The essentials: as §1

The subject of assay [2] is barnyardgrass (Echinochloa crus-galli). Description: Test A pre-/postemergence: barnyardgrass. As to conditions: Echinochloa crus-galli, 240 h; for pest or weed control at 125 g/ha: 125 g ai/ha; for pest or weed control at 500 g/ha: 500 g ai/ha. The essentials:
as §1

In assay [3] the test system is wheat (Triticum aestivum). Description: Test A pre-/postemergence: wheat. As to conditions: Triticum aestivum, 240 h; for plant injury at 125 g/ha: 125 g ai/ha; for plant injury at 500 g/ha: 500 g ai/ha. The essentials: as §1
[4] abbreviates: post-emergence, Postemergence, 0 to 100 scale, 0 is no effect, 100 is complete control, read-out: Morningglory plant response rating.
The mark [5] stands for this setting: post-emergence, Postemergence, visual rating on 0 to 100 scale (0 no effect, 100 complete control), approximately ten days, read-out: Morningglory plant response rating.
Where [6] appears, read: pre-emergence, Preemergence, 0 to 100 scale (0 no effect, 100 complete control), read-out: Plant response rating, Morningglory.
Where [7] appears, read: pre-emergence, Preemergence, 0 to 100 scale, 0 is no effect, 100 is complete control, read-out: Plant response rating, Morningglory.
Where [8] appears, read: 0 to 100 scale, 0 is no effect, 100 is complete control.
The mark [9] stands for this setting: 0 to 100 scale (0 no effect, 100 complete control).
[10] abbreviates: post-emergence, Postemergence, 0 to 100 scale, 0 is no effect, 100 is complete control, read-out: Barnyardgrass plant response rating.
Setting [11] is: post-emergence, Postemergence, visual rating on 0 to 100 scale (0 no effect, 100 complete control), approximately ten days, read-out: Barnyardgrass plant response rating.
[12] abbreviates: pre-emergence, Preemergence, 0 to 100 scale (0 no effect, 100 complete control), read-out: Plant response rating, Barnyardgrass.
Where [13] appears, read: pre-emergence, Preemergence, 0 to 100 scale, 0 is no effect, 100 is complete control, read-out: Plant response rating, Barnyardgrass.
The mark [14] stands for this setting: post-emergence, Postemergence, 0 to 100 scale, 0 is no effect, 100 is complete control, read-out: Wheat plant response rating.
The mark [15] stands for this setting: post-emergence, Postemergence, visual rating on 0 to 100 scale (0 no effect, 100 complete control), approximately ten days, read-out: Wheat plant response rating.
Where [16] appears, read: pre-emergence, Preemergence, 0 to 100 scale (0 no effect, 100 complete control), read-out: Plant response rating, Wheat.
Setting [17] is: pre-emergence, Preemergence, 0 to 100 scale, 0 is no effect, 100 is complete control, read-out: Plant response rating, Wheat.
Where [18] appears, read: pre-emergence, Preemergence, 0 to 100 scale where 0 is no effect and 100 is complete control, read-out: Plant response rating, Morningglory.
The mark [19] stands for this setting: 0 to 100 scale where 0 is no effect and 100 is complete control.
Setting [20] is: pre-emergence, Preemergence, 0 to 100 scale where 0 is no effect and 100 is complete control, read-out: Plant response rating, Barnyardgrass.
Where [21] appears, read: pre-emergence, Preemergence, 0 to 100 scale where 0 is no effect and 100 is complete control, read-out: Plant response rating, Wheat.

Where two headings read alike, the source gives them in different places.

In the case of `Cc1nn(-c2ccc(C(F)(F)F)cc2)nc1Oc1csc(C(F)(F)F)c1` [Compound 1, 4-methyl-2-[4-(trifluoromethyl)phenyl]-5-[[5-(trifluoromethyl)-3-thienyl]oxy]-2H-1,2,3-triazole], the pest or weed control at 125 g/ha in assay [1] (setting [4]) is 50%; in assay [1] (setting [6]) it was 0%; in assay [2] (setting [10]), 0%; in assay [2] (setting [12]), 20%. Besides, the pest or weed control at 500 g/ha came out at 100% in assay [1] (setting [5]), 20% in assay [1] (setting [7]), 20% in assay [2] (setting [11]) and 50% in assay [2] (setting [13]). For the same molecule, the plant injury at 125 g/ha in the assay with corn (Zea mays) (setting [8]) worked out at 20%; in assay [3] (setting [14]), 10%; in assay [3] (setting [16]) it was 0%. Besides, the plant injury at 500 g/ha in the assay with corn (Zea mays) worked out at 20%; in assay [3] (setting [15]), 20%; in assay [3] (setting [17]) it was 0%. This molecule also gave a Corn plant response rating (crop injury, 0 = no effect, 100 = complete kill) at 125 g/ha in the assay with corn (Zea mays) (setting [9]) of 0%. In the assay with corn (Zea mays) (setting [8]), the Corn plant response rating (crop injury, 0 = no effect, 100 = complete kill) at 500 g/ha turned out to be 0%.

Turning to `Cc1nn(-c2ccc(F)cc2F)nc1Cc1ccnc(C(F)(F)F)c1` [Compound 54, 4-[[2-(2,4-difluorophenyl)-5-methyl-2H-1,2,3-triazol-4-yl]methyl]-2-(trifluoromethyl)pyridine], the pest or weed control at 125 g/ha in assay [1] (setting [6]) was determined as 60%; in assay [2] (setting [10]), 70%; in assay [2] (setting [12]) it was 80%. Further, the results for the pest or weed control at 500 g/ha in assay [1] (setting [7]), in assay [2] (setting [11]) and in assay [2] (setting [13]) were 90%, 90% and 100%, respectively. For the same molecule, the plant injury at 125 g/ha in the assay with corn (Zea mays) (setting [8]) worked out at 30%; in assay [3] (setting [14]) it was 20%; in assay [3] (setting [16]) it was 10%. Also, the results for the plant injury at 500 g/ha (with corn (Zea mays); in assay [3] (setting [15]); in assay [3] (setting [17])) were 60%, 30% and 30%, respectively. In the assay on corn (Zea mays) (setting [9]), this molecule registered a Corn plant response rating (crop injury, 0 = no effect, 100 = complete kill) at 125 g/ha of 10%. Besides, the Corn plant response rating (crop injury, 0 = no effect, 100 = complete kill) at 500 g/ha in the assay on corn (Zea mays) (setting [8]) was found to be 40%.

Regarding `COCc1nn(-c2ccc(C(F)(F)F)cc2)nc1Oc1cccc(OC(F)(F)F)c1` [Compound 115, 4-(methoxymethyl)-5-[3-(trifluoromethoxy)phenoxy]-2-[4-(trifluoromethyl)phenyl]-2H-1,2,3-triazole], the pest or weed control at 125 g/ha in assay [1] (setting [4]) turned out to be 90%; in assay [1] (setting [18]), 0%; in assay [2] (setting [10]), 20%; in assay [2] (setting [20]), 30%. In addition, the pest or weed control at 500 g/ha stood at 100% in assay [1] (setting [5]), 10% in assay [1] (setting [6]), 30% in assay [2] (setting [11]) and 60% in assay [2] (setting [12]). Further, the plant injury at 125 g/ha in the assay on corn (Zea mays) (setting [8]) was 10%; in assay [3] (setting [14]), 10%; in assay [3] (setting [21]), 0%. The values for the plant injury at 500 g/ha (with corn (Zea mays); in assay [3] (setting [15]); in assay [3] (setting [16])) were 30%, 20% and 10%, respectively. Also, the Corn plant response rating (crop injury, 0 = no effect, 100 = complete kill) at 125 g/ha in the assay on corn (Zea mays) (setting [19]) turned out to be 0%. This molecule also returned a Corn plant response rating (crop injury, 0 = no effect, 100 = complete kill) at 500 g/ha in the assay on corn (Zea mays) (setting [9]) of 10%.

As to `FCc1nn(-c2ccc(C(F)(F)F)cc2)nc1Oc1cccc(OC(F)(F)F)c1` [Compound 116, 4-(fluoromethyl)-5-[3-(trifluoromethoxy)phenoxy]-2-[4-(trifluoromethyl)phenyl]-2H-1,2,3-triazole], the pest or weed control at 125 g/ha turned out to be 70% in assay [1] (setting [4]), 0% in assay [1] (setting [18]), 10% in assay [2] (setting [10]) and 0% in assay [2] (setting [20]). The pest or weed control at 500 g/ha was determined as 100% in assay [1] (setting [5]), 10% in assay [1] (setting [6]), 20% in assay [2] (setting [11]) and 30% in assay [2] (setting [12]). Moreover, the plant injury at 125 g/ha is 20% in the assay on corn (Zea mays) (setting [8]), 10% in assay [3] (setting [14]) and 0% in assay [3] (setting [21]). In addition, the plant injury at 500 g/ha was found to be 30% with corn (Zea mays), 10% in assay [3] (setting [15]) and 10% in assay [3] (setting [16]). This molecule had a Corn plant response rating (crop injury, 0 = no effect, 100 = complete kill) at 125 g/ha with corn (Zea mays) (setting [19]) of 0%. The molecule also showed a Corn plant response rating (crop injury, 0 = no effect, 100 = complete kill) at 500 g/ha with corn (Zea mays) (setting [9]) of 10%.
